These results are taken from article PMC6806261, “Modified Peptide YY Molecule Attenuates the Activity of NPY/AgRP Neurons and Reduces Food Intake in Male Mice” (Endocrinology, 2019).

pKi: −log10 of the molar value. Where no end group is shown, it is not given here.

In data set [1] the test system is Agrp-cre::hM3Dq-mCherry mice. Put plainly: DREADD (hM3Dq/CNO)-stimulated feeding. The class given is in vivo, mouse. As for the experimental part: For surgery, mice (8 to 12 weeks) were anesthetized with isoflurane (1 L/min O2 with 2% isoflurane). Following surgery, all mice received 0.03 mg/kg buprenorphine (Buprenex, Reckitt Benckiser, Slough, UK) and were allowed a minimum of 1 week to recover before treatment started. DIO mice received subcutaneous implants of an Alzet 2002 osmotic minipump (Durect, Cupertino, CA). All of the DIO mice experienced a small reduction in body weight following implantation of the minipump. For experiments using designer receptors exclusively activated by designer drugs (DREADDs), AgRP-cre mice received bilateral injections of AAV2-hSyn-DIO-hM3Dq-mCherry (UNC Vector Core, Chapel Hill, NC) ([35]) into the arcuate nucleus (3 × 23 nL per side), using the following coordinates relative to Bregma, according to Paxinos and Franklin ([36]): anterior, −1.5 mm; lateral, ±0.30 mm; and ventral, −6.2 mm. Subsequently, the DREADDs were activated by IP injection of the designer drug, clozapine N-oxide (CNO; Sigma-Aldrich, St. Louis, MO) at 1 mg/kg.

Data set [2] has as its system mice. Description: Normal nighttime feeding after SC injection. The class given is in vivo, mouse. The conditions noted are these: serial dilution, food intake after 2 hours. As to the method:
(§1) For acute experiments, mice were acclimated to handling for 2 weeks and housed singly with free access to food at least 4 days before experiments. Nighttime injections of NNC0165-1273 were given subcutaneously (SC) 30 minutes before start of “dark phase,” and food intake was measured 1, 2, 4, and 14 hours later. Daytime feeding experiments commenced 4 hours into the “light phase” [Zeitgeber time (ZT) 4]; injections of ghrelin (2 mg/kg, IP) and NNC0165-1273/PYY3-36 (various doses, SC) were given concomitantly, and food intake measured at 1, 2, 4, and 24 hours later.

Data set [3] has as its system NPY/AgRP neurons. Description: cFos immunohistochemistry in arcuate NPY/AgRP neurons. The data set is classed as in vivo, mouse. As to the method:
Mice were transcardially perfused with chilled 0.9% NaCl followed by 4% paraformaldehyde in 0.1M phosphate buffer (Sigma-Aldrich). Whole brains were postfixed overnight and then dehydrated in 30% sucrose solution. Brains were flash frozen on dry ice, and then 30 µm sections were collected using a freezing sledge microtome and transferred to 0.1M phosphate buffer.
For chromogenic visualization of cFos, free-floating sections were incubated sequentially in rabbit anit-cFos primary [1:1000; SC-52; Santa Cruz, Dallas, TX ([37])], biotinylated goat anit-rabbit secondary [1:500; BA-1000; Vector Laboratories, Cambridge, UK ([38])], and streptavidin-biotin-peroxidase complex (1:500; RPN1051; GE Healthcare, Chicago, IL). This was combined with fluorescence staining for GFP or mCherry reporters; this required coincubation of sections with chicken anit-GFP [1:1000; 13970; Abcam, Cambridge, UK ([39])] followed by donkey anit-chicken^ALEXA 488 [1:1000; 703-545-155, Jackson ImmunoResearch, West Grove, PA ([40])], or with rabbit anti-DsRed [1:1000, 632396, Clontech, CA ([41])] followed by donkey […]^ALEXA 594 [1:1000; 705-585-147; Jackson ImmunoResearch, ([42])]. Sections were mounted on slides before imaging on an Olympus BX51 upright microscope. Images were processed and analyzed using open-source FIJI software.

The conditions of data set [4]: cited from earlier work. An excerpt:
(§2) PYY3-36 and ghrelin were purchased from Bachem (Bubendorf, Switzerland). NNC0165-1273 was identified from a series of modified PYY peptides and synthesized with the aim of increased selectivity for Y2 receptors vs the other Y receptors [peptide no. 29 in Østergaard et al. ([9])].

Data set [5] addresses human Y1 receptor. The conditions noted are these: ref [9] Østergaard et al., read-out: binding inhibitory constant (Ki), Y1 receptor; cited from earlier work.
Source text: as §2

Data set [6] addresses human Y2 receptor. Particulars: same binding assays for both peptides, ref [9] Østergaard et al., read-out: binding inhibitory constant (Ki), Y2 receptor; cited from earlier work.
Source text: as §2

Data set [7] has as its target human Y4 receptor. Particulars: ref [9] Østergaard et al., read-out: binding inhibitory constant (Ki), Y4 receptor; cited from earlier work.
Source text: as §2

The target in data set [8] is human Y5 receptor. Particulars: ref [9] Østergaard et al., read-out: binding inhibitory constant (Ki), Y5 receptor; cited from earlier work.
Source text: as §2

The test system of data set [9] is mice. Description: Ghrelin-induced daytime feeding. The data set is classed as in vivo, mouse. The conditions noted are these: 2 mg/kg IP, light phase, fed mice. As to the method: as §1
In data set [10] the test system is arcuate NPY/AgRP neurons (Npy-hrGFP). Put plainly: Current clamp patch electrophysiology in brain slices. Particulars: 50 nM bath application; results not shown. The class given is cell-based, mouse. As to the method:
Npy-hrGFP mice were euthanized by decapitation, and the brains rapidly removed and sliced on a vibratome (Campden Instruments, Loughborough, UK) in ice-cold oxygenated incubation artificial cerebrospinal fluid (aCSF) containing (mM): 95 NaCl, 1.8 KCl, 1.2 KH2PO4, 7 MgSO4, 26 NaHCO3, 0.5 CaCl2, 15 glucose, and 50 sucrose. Slices were perfused with room temperature recording aCSF containing (mM): 127 NaCl, 1.8 KCl, 1.2 KH2PO4, 1.3 MgSO4, 26 NaHCO3, 2.4 CaCl2, and 5 glucose. Npy-hrGFP neurons were visualized in 250-µm slices using an Olympus BX51 with inbuilt infrared video-enhanced differential interference contrast optics and GFP fluorescence optics. Neurons were patched using 7 to 10 MΩ pipettes containing (mM): 130 K-gluconate, 10 KCl, 2 MgCl2, 10 HEPES, 0.5 EGTA, 2 K2ATP, and 0.5 NaGTP. Data were recorded on an Axoclamp 2A amplifier in bridge mode (Molecular Devices, San Jose, CA) and a CED 1401 A/D data acquisition interface (CED, Cambridge, UK) to give current clamp data at 30 kHz sampling frequency. NNC0165-1273 (Novo Nordisk, Maaloev, Denmark) was diluted in aCSF to a concentration of 50 nM and applied to perfusion chamber through a gravity-driven system. Effects were sampled with no current manipulations. All applications were timed for 3 to 5 minutes and perfusion flow was maintained at standard 1 to 2 mL/min^−1.

Regarding `C[N+]1([O-])CCN(C2=Nc3cc(Cl)ccc3Nc3ccccc32)CC1` [CNO, clozapine N-oxide], the “food intake in Agrp-cre::hM3Dq-mCherry mice” value in [1] (single IP injection 1 mg/kg, vs saline) is listed as “substantial increase in food intake”. Also, the “food intake in wild-type mice” value in data set [1] (wild-type mice, results not shown) was “do not respond”.

Take “PYY3-36: truncated major circulating form of gut hormone peptide YY; purchased from Bachem”: in data set [2], the “threshold dose needed to inhibit nighttime feeding” value amounted to 0.04 µmol/kg. In addition, the “ghrelin-induced activation (cFos) of NPY/Agrp neurons” value in data set [3] (pretreatment before ghrelin 2 mg/kg, perfused 90 minutes after ghrelin, Npy-hrGFP mice) was “blocked”. In addition, the “half-life in pig plasma” value in [4] was 3.33 h. Besides, the pKi in data set [5] was 7.40; in [6], 9.40; in data set [7] it was 7.89; in data set [8] it was 8.49.

Regarding “ghrelin: orexigenic peptide purchased from Bachem, used to induce feeding and activate NPY/AgRP neurons (GSSFLSPEHQRVQQRKESKKPPAKLQPR; ends and bridges not checked; UniProt Q9UBU3 24-51, looked up)”, in data set [9], the “food intake after ghrelin alone” value is reported as “substantial increase in food intake”. Besides, the “cFos expression in the arcuate nucleus, notably NPY-hrGFP neurons” value in data set [3] (ghrelin 2 mg/kg, 90 minutes after injection) is reported as “substantial increase”. Moreover, in data set [10], the “resting membrane potential of NPY/AgRP neurons” value is on record as “increase in the resting membrane potential”.
